Results on 16 molecules are retold here after paper PMC9229294, “Pyridazinones and Structurally Related Derivatives with Anti-Inflammatory Activity” (Molecules, 2022).

For series [1], the system named is LPS-induced NF-κB activity in THP1-Blue cells. Description: Inhibition of LPS-induced NF-κB transcriptional activity, alkaline phosphatase reporter, THP1-Blue cells. The class given is cell-based, human. To be noted: for IC50: LPS-induced NF-κB activity, human THP1-Blue cells, N.A. = no activity at 50 µM; for Inhibition of LPS-induced NF-κB activity (in words): THP1-Blue cells, 250 ng/mL LPS, 24 h; for Observed class for inhibition of NF-κB activity: experimentally observed, Active or N.A. The method, then:
(§1) Our studies included 175 compounds that were previously synthesized and characterized at NEUROFARBA, Pharmaceutical and Nutraceutical Section, University of Florence, Italy. We previously evaluated the FPR1/FPR2 agonist activity of these compounds by evaluating their ability to induce Ca^2+ mobilization in FPR-transfected HL60 cells and human neutrophils. […] All test compounds were dissolved in DMSO at stock concentrations of 10 mM and stored at −20 °C. For primary screening assays (analysis of NF-κB activation, IL-6 production, and cytotoxicity), the following final concentrations of the compounds were used: 3.125, 6.25, 12.5, 25, and 50 µM; the final concentration of DMSO was 1% in all samples.
The activation of NF-κB was measured using an alkaline phosphatase reporter assay in human monocytic THP1-Blue cells stably transfected with a secreted embryonic alkaline phosphatase gene that is under the control of a promoter inducible by the NF-κB. The THP1-Blue cells (2 × 10^5 cells/well) were pretreated with the test compound or DMSO for 30 min, followed by an addition of 250 ng/mL LPS for 24 h. Alkaline phosphatase activity was determined in cell supernatants using a QUANTI-Blue mix (InvivoGen) and measured at 655 nm and compared with positive control samples (LPS).

Series [2] is described as follows: Cytotoxicity, CellTiter-Glo, THP1-Blue cells. The class given is cell-based, human. To be noted: human, THP1-Blue cells. The method, then: as §1
The cytotoxicity was analyzed with a CellTiter-Glo Luminescent Cell Viability Assay Kit from Promega (Madison, WI, USA), according to the manufacturer’s protocol. The luminescent ATP assays are based on a luciferase enzymatic reaction which uses ATP from viable cells to generate photons. For this assay, the cells were incubated with the compounds under investigation for 24 h. After treatment, the cells were equilibrated to room temperature for 30 min, luciferase + luciferin substrate was added, and the samples were analyzed with a Fluoroscan Ascent FL (Thermo Fisher Scientific, Waltham, MA, USA). The IC50 values were calculated by plotting the percentage inhibition against the logarithm of the inhibitor concentration (at least five points).

Series [3] deals with T1, FPR1 (Homo sapiens, UniProt P21462).
T1 construct: expressed in transfected cells; host or cells: HL-60 cells (FPR1-HL60)
T1 sequence (P21462 1-350): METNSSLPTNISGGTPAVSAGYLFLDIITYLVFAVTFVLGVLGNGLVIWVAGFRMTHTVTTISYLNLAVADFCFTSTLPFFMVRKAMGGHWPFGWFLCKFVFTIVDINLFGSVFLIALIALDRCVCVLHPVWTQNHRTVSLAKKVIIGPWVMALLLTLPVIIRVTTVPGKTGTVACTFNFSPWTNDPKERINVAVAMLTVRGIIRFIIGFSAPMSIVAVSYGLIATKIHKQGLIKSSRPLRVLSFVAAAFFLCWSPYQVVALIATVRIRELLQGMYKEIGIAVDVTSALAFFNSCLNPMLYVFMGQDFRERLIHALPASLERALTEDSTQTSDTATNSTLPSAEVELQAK
To be noted: FPR1-transfected HL-60 cells; agonist activity from Table 1; read-out: Ca2+ Mobilization FPR1 EC50 in HL-60 Cells; cited from earlier work.

Series [4] concerns the target T2, FPR2 (Homo sapiens, UniProt P25090).
T2 construct: expressed in transfected cells; host or cells: HL-60 cells (FPR2-HL60)
T2 sequence (P25090 1-351): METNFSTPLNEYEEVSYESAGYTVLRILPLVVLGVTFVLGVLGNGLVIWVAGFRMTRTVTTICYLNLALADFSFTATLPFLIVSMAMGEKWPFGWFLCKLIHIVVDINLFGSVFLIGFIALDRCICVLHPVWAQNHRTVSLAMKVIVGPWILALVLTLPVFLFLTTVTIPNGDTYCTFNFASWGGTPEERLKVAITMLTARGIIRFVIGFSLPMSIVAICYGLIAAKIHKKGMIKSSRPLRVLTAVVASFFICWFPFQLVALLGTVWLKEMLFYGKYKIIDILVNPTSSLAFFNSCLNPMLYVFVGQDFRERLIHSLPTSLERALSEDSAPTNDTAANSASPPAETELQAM
To be noted: FPR2-transfected HL-60 cells; agonist activity from Table 1; read-out: Ca2+ Mobilization FPR2 EC50 in HL-60 Cells; cited from earlier work. (In general: A change in cytosolic calcium serves as a functional read-out for many receptors and channels.)

Where [5] appears, read: N.T. = no cytotoxicity at 50 µM, read-out: Cytotoxicity IC50 in THP1-Blue Cells.

SMILES strings stand for the structures. Where two headings read alike, the source gives them in different places.

In the case of `CC(C)c1c(NC(=O)Nc2ccc(Cl)cc2)c(=O)n(-c2ccccc2)n1C` [Cmpd43, N-(4-chlorophenyl)-N′-(5-isopropyl-1-methyl-3-oxo-2-phenyl-2,3-dihydro-1H-pyrazol-4-yl)urea, reference compound], in series [1], the IC50 (commonly the concentration that gives 50% inhibition) is above 50 µM and the “Inhibition of LPS-induced NF-κB activity (in words)” value (“Inhibition … (in words)” for short) is listed as “did not inhibit”. Also, in series [2] (setting [5]), the IC50 at 24 h is above 50 µM.
As to `COc1cccc(Cc2cc(C)nn(CC(=O)Nc3ccc(Br)cc3)c2=O)c1` [Compound 1], the “Inhibition … (in words)” value in series [1] was “inactive”.
In series [1] (Homo sapiens), `COc1cccc(Cc2cc(C)nn(CC(=O)Nc3ccc([N+](=O)[O-])cc3)c2=O)c1` [Compound 5] had an IC50 of 46.1 ± 1 µM. In addition, the “Observed class for inhibition of NF-κB activity” value (from here on “Observed class for inhibition”) in series [1] is reported as “Active”. In addition, the concentration for half-maximal inhibition (IC50) at 24 h in series [2] (setting [5]) is above 50 µM.
In turn, `COc1cccc(Cc2cc(C)nn(CC(=O)Nc3ccc(F)cc3)c2=O)c1` [Compound 15] had an IC50 in series [1] (Homo sapiens) of 33.6 ± 2.1 µM. In addition, the “Observed class for inhibition” value in series [1] is listed as “Active”. Further, in series [2] (setting [5]), the IC50 at 24 h is above 50 µM.
In the case of `COc1ccc(-c2cc(C)nn(CC(=O)Nc3ccc(Br)cc3)c2=O)cc1` [Compound 19], in series [1], the “Inhibition … (in words)” value was “inactive”.
`Cc1cc(Cc2ccccc2)c(=O)n(CC(=O)Nc2ccc(Br)cc2)n1` [Compound 30] returned an IC50 in series [1] (Homo sapiens) of 28.4 ± 5.7 µM. Besides, the “Observed class for inhibition” value in series [1] was “Active”. The IC50 at 24 h in series [2] (setting [5]) is above 50 µM.
Turning to `COc1ccc(Cc2cc(-c3ccc(F)cc3)nn(CC(=O)Nc3ccc(Br)cc3)c2=O)cc1` [Compound 49], the EC50 in series [3] and in series [4] was above 50 µM throughout. In series [1] (Homo sapiens), this molecule displayed an IC50 of 34.5 ± 2.1 µM. Also, the “Observed class for inhibition” value in series [1] is reported as “Active”. Further, in series [2] (setting [5]), the IC50 at 24 h was above 50 µM.
In the case of `COc1ccc(N(c2ccc(OC)cc2)c2cc(C)nn(CC(=O)Nc3ccc(Br)cc3)c2=O)cc1` [Compound 50], the EC50 in series [3] and in series [4] was above 50 µM in each case. The IC50 in series [1] (Homo sapiens) was 32.8 ± 0.7 µM. Moreover, in series [1], the “Observed class for inhibition” value is “Active”. Moreover, the IC50 at 24 h in series [2] (setting [5]) was above 50 µM.
In series [1] (Homo sapiens), `Cc1cc(Cc2cccc(F)c2)c(=O)n(CC(=O)Nc2ccc(Br)cc2)n1` [Compound 64] had an IC50 of 27.9 ± 2.1 µM. Also, the “Observed class for inhibition” value in series [1] is on record as “Active”. Besides, the IC50 at 24 h in series [2] (setting [5]) is above 50 µM.
As to `Cc1cc(Cc2ccc(C(F)(F)F)cc2)c(=O)n(CC(=O)Nc2ccc(Br)cc2)n1` [Compound 66], the EC50 in series [3] and in series [4] was above 50 µM in each case. In series [1] (Homo sapiens), half-maximal inhibition (IC50) was put at 31.5 ± 2.2 µM. The “Observed class for inhibition” value in series [1] is “Active”. In addition, the IC50 at 24 h in series [2] (24 h, read-out: Cytotoxicity IC50) was 22 to 26 µM; in series [2] (setting [5]) it was 26.4 ± 4.7 µM.
`Cc1cc(-c2ccccc2)nn(CC(=O)Nc2ccc(Br)cc2)c1=O` [Compound 67]: the EC50 – broadly, the concentration needed to bring the measured effect to its halfway point – in series [3] is 21.5 µM; in series [4], 10.1 µM. Also, half-maximal inhibition in series [1] (Homo sapiens) (IC50) was put at 30.9 ± 2.3 µM. The “Inhibition … (in words)” value in series [1] is recorded as “active”. In addition, in series [2] (setting [5]), the IC50 at 24 h is above 50 µM.
With `CCC(C(=O)Nc1ccc(Br)cc1)n1nc(C)cc(Cc2cccc(OC)c2)c1=O` (stereo not drawn) [Compound 88], the EC50 in series [3] is 1.3 µM; in series [4], 2.2 µM. This molecule gave an IC50 in series [1] (Homo sapiens) of 39.4 ± 4.2 µM. Also, the IC50 at 24 h in series [2] (setting [5]) is above 50 µM.
In the case of `CCC(C)(C(=O)Nc1ccc(Br)cc1)n1nc(C)cc(Cc2cccc(OC)c2)c1=O` (stereo not drawn) [Compound 90], the results for the EC50 in series [3] and in series [4] were 1.5 µM and 2.1 µM, respectively. In series [1] (Homo sapiens), this molecule displayed an IC50 of 39.2 ± 6.7 µM. Besides, the IC50 at 24 h in series [2] (setting [5]) was above 50 µM.
In turn, `COc1cccc(Cc2cc(C)nn(CCNC(=O)Nc3ccc(Br)cc3)c2=O)c1` [Compound 113] registered an IC50 in series [1] (Homo sapiens) of 37 ± 0.4 µM. Also, the “Observed class for inhibition” value in series [1] was “Active”. The IC50 at 24 h in series [2] (setting [5]) was above 50 µM.
Consider `COc1ccc2c(c1)c(CC(=O)Nc1ccc(Br)cc1)c(C)n2C(=O)c1ccc(Cl)cc1` [Compound 133], for which the “Inhibition … (in words)” value in series [1] was “inactive”.
On the same count and under the same terms, next, `COc1cccc(Cn2cc(CC(=O)Nc3ccc(Br)cc3)c3ccccc32)c1` [Compound 134]: “inactive”.
